Target: T1, CDK2/Cyclin E (Homo sapiens, UniProt P24941)
T1 construct: The open reading frames of CDK2 and Cyclin E were isolated; made in house; host or cells: Sf21 (Spodoptera frugiperda) insect cells, baculovirus co-infection; the GST-Rb substrate was made in E. coli BL21 (DE3) pLysS
Assay: in vitro kinase assay (Scintillation Proximity Assay), CDK2/Cyclin E, GST-Rb substrate
Assay type: biochemical
Conditions: in-vitro SPA kinase assay, read-out: CDK2 inhibitory activity IC50
Method: The compounds were tested in an in vitro kinase assay in 96 well format using Scintillation Proximity Assay (SPA—obtained from Amersham) for measuring incorporation of [γ-33-P]-Adenosine Triphosphate into a test substrate (GST-Retinoblastoma protein; GST-Rb). In each well was placed the compound to be tested (diluted in DMSO and water to correct concentrations) and in control wells either roscovitine as an inhibitor control or DMSO as a positive control. […]
The plates were sealed with Topseal-S plate sealers, left for two hours then spun at 2500 rpm, 1124×g., for 5 minutes. The plates were read on a Topcount for 30 seconds per well. […]
E. coli paste was resuspended in 10 ml/g of NETN buffer (50 mM Tris pH 7.5, 120 mM NaCl, 1 mM EDTA, 0.5% v/v NP-40, 1 mM PMSF, 1 ug/ml leupeptin, 1 ug/ml aprotinin and 1 ug/ml pepstatin) and sonicated for 2×45 seconds per 100 ml homogenate. […] The final product was analysed by Sodium Dodeca Sulfate (SDS) PAGE (Polyacrylamide gel) using 8-16% Tris-Glycine gels (Novex, San Diego, USA).
The open reading frames of CDK2 and Cyclin E were isolated by reverse transcriptase-PCR using HeLa cell and activated T cell mRNA as a template and cloned into the insect expression vector pVL1393 (obtained from Invitrogen 1995 catalogue number: V1392-20). […]

## Cc1ncc(-c2ccnc(Nc3ccc(N4CCOCC4)nc3)n2)n1C(C)C [Example 22, 4-(1-Isopropyl-2-methyl-1H-imidazol-5-yl)-N-(6-morpholin-4-ylpyridin-3-yl)pyrimidin-2-amine]
  IC50: 0.049 µM
